In patent EP1561465A2, “Methods of use of fluoroquinolone compounds against bacteria” (LG Life Sciences, Ltd., priority 1999, dated 2001):
≈ marks a conversion by molar mass, not a printed value. Where two headings read alike, the source gives them in different places.

What was measured:
[1] = test system: Haemophilus influenzae; assay: MIC by two-fold serial agar dilution, Sensitivity Disk agar-N (Kitasato isolates); format: cell-based; conditions: Haemophilus influenzae (24)
[2] = test system: Staphylococcus aureus; assay: microbe, parasite or virus in culture; format: cell-based
[3] = test system: Streptococcus pneumoniae; assay: MIC by two-fold serial agar dilution, Sensitivity Disk agar-N (Kitasato isolates); format: cell-based; conditions: for MIC90 / MIC / MIC50: Streptococcus pneumoniae; for MIC90: read-out: MIC90; for MIC: read-out: MIC Range; for MIC50: read-out: MIC50
[4] = test system: Moraxella catarrhalis; assay: as above; format: cell-based; conditions: Moraxella catarrhalis (22)
[5] = test system: Campylobacter jejuni; assay: MIC by agar dilution (NCCLS M7-A4), 288 enteropathogenic isolates, gemifloxacin and 15 other antimicrobials; conditions: Campylobacter jejuni
[6] = test system: Yersinia enterocolitica; assay: as above; format: cell-based; conditions: for MIC: Yersinia enterocolitica N= 22
[7] = test system: Hafnia alvei; assay: as above; format: cell-based; conditions: Hafnia alvei N= 32
[8] = test system: Salmonella spp.; assay: as above; format: cell-based; conditions: for MIC: Salmonella
[9] = test system: Shigella spp.; assay: as above; format: cell-based; conditions: for MIC: Shigella spp. N= 21
Procedure: [A. hydrophila (12), and A. sobria (4)], and 91 Campylobacter jejuni. […] The strains were stored in skimmed-milk at -80 °C until studied.
The plates were incubated aerobically at 35 °C for 24 h, except for Campylobacter jejuni, where a microaerophilic atmosphere was obtained by using Campy Pack (Becton Dickinson, Cockeysville, MD, USA), and incubation was for 48 h. All organisms were tested with an inoculum of ≅ 10^4 cfu/spot. MICs were defined as the lower antibiotic concentration with no visible growth.

[10] = test system: Aeromonas spp.; assay: as above; format: cell-based; conditions: for MIC: Aeromonas spp. N= 16
[11] = 18 h, Ciprofloxacin-resistant (21), ciprofloxacin MIC ≥8 µg/ml
[12] = 18 h, Ciprofloxacin-resistant (21)
[13] = 18 h, Erythromycin-resistant (37)
[14] = 18 h, Penicillin-resistant (19)
[15] = 24 h, read-out: MIC (mg/L) Range

For `CO/N=C(\C(=O)N[C@@H]1C(=O)N2C(C(=O)O)=C(/C=C\c3scnc3C)CS[C@H]12)c1csc(N)n1` [Cefditoren, cefditoren], the MIC50 [1] was 0.031 µg/mL (≈ 0.0612 µM), the MIC90 [1] was 0.031 µg/mL (≈ 0.0612 µM) and the “MIC Range” value [1] was 0.016 to 0.5 µg/mL. The “MIC Range” value ([2]; Methicillin-resistant (38)) was 32 to 128 µg/mL, the “MIC Range” value ([2]; Methicillin-susceptible (9)) was 0.5 to 1 µg/mL and the MIC50 ([2]; Staphylococcus aureus, Methicillin-resistant (38)) was 128 µg/mL (≈ 253 µM). It also gave an MIC90 ([2]; Staphylococcus aureus, Methicillin-resistant (38), read-out: MIC90) of 128 µg/mL (≈ 253 µM), an MIC50 ([2]; Staphylococcus aureus, Methicillin-susceptible (9)) of 1 µg/mL (≈ 1.97 µM) and an MIC90 ([2]; Staphylococcus aureus, Methicillin-susceptible (9), read-out: MIC90) of 1 µg/mL (≈ 1.97 µM). The MIC90 [3, 11] was 0.25 µg/mL (≈ 0.493 µM), the MIC [3, 12] was 0.008 to 1 µg/mL (≈ 0.0158 to 1.97 µM) and the MIC ([3]; 18 h, Ciprofloxacin-susceptible (94)) was 0.008 to 2 µg/mL (≈ 0.0158 to 3.95 µM). It also gave an MIC [3, 13] of 0.008 to 2 µg/mL (≈ 0.0158 to 3.95 µM), an MIC ([3]; 18 h, Minocycline-resistant (37)) of 0.008 to 2 µg/mL (≈ 0.0158 to 3.95 µM) and an MIC [3, 14] of 0.25 to 2 µg/mL (≈ 0.493 to 3.95 µM). It also gave an MIC50 ([3]; Ciprofloxacin-resistant (21)) of at most 0.008 µg/mL, an MIC50 ([3]; Ciprofloxacin-susceptible (94)) of 0.063 µg/mL (≈ 0.124 µM) and an MIC90 ([3]; Ciprofloxacin-susceptible (94)) of 0.25 µg/mL (≈ 0.493 µM). For the same compound, the MIC50 ([3]; Erythromycin-resistant (37)) was 0.063 µg/mL (≈ 0.124 µM), the MIC90 ([3]; Erythromycin-resistant (37)) was 0.25 µg/mL (≈ 0.493 µM) and the MIC50 ([3]; Minocycline-resistant (37)) was 0.063 µg/mL (≈ 0.124 µM). For the same compound, the MIC90 ([3]; Minocycline-resistant (37)) was 0.25 µg/mL (≈ 0.493 µM), the MIC50 ([3]; Penicillin-resistant (19)) was 0.25 µg/mL (≈ 0.493 µM) and the MIC90 ([3]; Penicillin-resistant (19)) was 2 µg/mL (≈ 3.95 µM). For the same compound, the MIC50 [4] was 0.5 µg/mL (≈ 0.987 µM), the MIC90 [4] was 1 µg/mL (≈ 1.97 µM) and the “MIC Range” value [4] was 0.063 to 1 µg/mL.
Work on `CC1(C)S[C@@H]2[C@H](NC(=O)[C@H](N)c3ccc(O)cc3)C(=O)N2[C@H]1C(=O)O` [Amoxycillin, amoxycillin] yielded an MIC ([5]; read-out: MIC (mg/L) 50%) of 4 mg/L (≈ 10.9 µM), an MIC ([5]; read-out: MIC (mg/L) 90%) of 32 mg/L (≈ 87.6 µM) and an MIC [6, 15] of 128 mg/L (≈ 350 µM). For the same compound, the “susceptibility of isolates” value ([6]; Yersinia enterocolitica) was “non susceptible”, the MIC ([6]; read-out: MIC (mg/L) 50%) was 128 mg/L (≈ 350 µM) and the MIC ([6]; read-out: MIC (mg/L) 90%) was 128 mg/L (≈ 350 µM). The MIC [7, 15] was 16 to 128 mg/L (≈ 43.8 to 350 µM), the MIC ([7]; read-out: MIC (mg/L) 50%) was 64 mg/L (≈ 175 µM) and the MIC ([7]; read-out: MIC (mg/L) 90%) was 64 mg/L (≈ 175 µM). For the same compound, the MIC50 [1] was 1 µg/mL (≈ 2.74 µM), the MIC90 [1] was 64 µg/mL (≈ 175 µM) and the susceptible isolates ([8]; Salmonella spp., breakpoints) was 77%. For the same compound, the MIC ([8]; read-out: MIC (mg/L) 50%, Salmonella spp. N= 106) was 1 mg/L (≈ 2.74 µM), the MIC ([8]; read-out: MIC (mg/L) 90%, Salmonella spp. N= 106) was over 128 mg/L and the susceptible isolates ([9]; Shigella spp., breakpoints) was 43%. The MIC ([9]; read-out: MIC (mg/L) 50%) was 128 mg/L (≈ 350 µM), the MIC ([9]; read-out: MIC (mg/L) 90%) was over 128 mg/L and the MIC90 [2] was 128 µg/mL (≈ 350 µM). For the same compound, the MIC90 ([2]; Staphylococcus aureus) was 64 µg/mL (≈ 175 µM), the “MIC Range” value ([3]; Ciprofloxacin-susceptible (94)) was at most 0.008 to 8 µg/mL and the “MIC Range” value ([3]; Minocycline-resistant (37)) was at most 0.008 to 8 µg/mL. For the same compound, the MIC90 [3, 11] was 0.5 µg/mL (≈ 1.37 µM), the MIC [3, 12] was 0.016 to 1 µg/mL (≈ 0.0438 to 2.74 µM) and the MIC [3, 13] was 0.016 to 8 µg/mL (≈ 0.0438 to 21.9 µM). It also gave an MIC [3, 14] of 0.25 to 8 µg/mL (≈ 0.684 to 21.9 µM), an MIC50 ([3]; Ciprofloxacin-resistant (21)) of 0.016 µg/mL (≈ 0.0438 µM) and an MIC50 ([3]; Ciprofloxacin-susceptible (94)) of 0.063 µg/mL (≈ 0.172 µM). The MIC90 ([3]; Ciprofloxacin-susceptible (94)) was 0.5 µg/mL (≈ 1.37 µM), the MIC50 ([3]; Erythromycin-resistant (37)) was 0.063 µg/mL (≈ 0.172 µM) and the MIC90 ([3]; Erythromycin-resistant (37)) was 0.5 µg/mL (≈ 1.37 µM). It also gave an MIC50 ([3]; Minocycline-resistant (37)) of 0.063 µg/mL (≈ 0.172 µM), an MIC90 ([3]; Minocycline-resistant (37)) of 0.5 µg/mL (≈ 1.37 µM) and an MIC50 ([3]; Penicillin-resistant (19)) of 0.5 µg/mL (≈ 1.37 µM). It also gave an MIC90 ([3]; Penicillin-resistant (19)) of 8 µg/mL (≈ 21.9 µM), an MIC50 [4] of 8 µg/mL (≈ 21.9 µM) and an MIC90 [4] of 16 µg/mL (≈ 43.8 µM). For the same compound, the “MIC Range” value [4] was 1 to 16 µg/mL, the “susceptibility of isolates” value ([10]; Aeromonas spp.) was “non susceptible” and the MIC ([10]; read-out: MIC (mg/L) 50%) was over 128 mg/L. It also gave an MIC ([10]; read-out: MIC (mg/L) 90%) of over 128 mg/L.
